Experimental data: paper PMC4318582, “Chemotherapy of Second Stage Human African Trypanosomiasis: Comparison between the Parenteral Diamidine DB829 and Its Oral Prodrug DB868 in Vervet Monkeys” (PLoS Neglected Tropical Diseases, 2015)
“And” between values parts separate entries of the source, which are not always exact repeats. Identical values can stand only once. Like-named read-outs stand apart in the source and are kept apart here.

Assays:
[1] = tested on: T. b. rhodesiense STIB900; set-up: method as in PMID 19620327; conditions: read-out: in vitro IC50; cited from earlier work
[2] = tested on: T. b. rhodesiense KETRI 2537; assay: Efficacy in KETRI vervet monkey model of second stage HAT; assay type: in vivo
From the text: The current study used the KETRI vervet monkey model of HAT, a model developed over 30 years ago through the experimental infection of vervet monkeys with T. b. rhodesiense. […] Trypanosomes were identified in peripheral blood first and cerebrospinal fluid (CSF) second, allowing the disease to be classified into an early (haemo-lymphatic) and a late (central nervous system [CNS]) stage, similar to the human disease. […] Monkey trypanosomal infections have been determined to be invariably fatal without therapeutic intervention, a characteristic also widely accepted as true for human sleeping sickness.
Parasitaemia and CSF parasitosis were monitored using established techniques for blood trypanosomes and CSF trypanosomes, respectively.
Due to a regulated freeze on acquisitions of new non-human primates, only six monkeys were available for the IM DB829 study. These animals were divided into three treatment groups, each consisting of one male and one female, to compare dose-responsiveness between consecutive- and alternate-day dosing. Monkeys were treated with 2.5 or 5 mg/kg/day for 5 consecutive days or with 5 mg/kg/day on alternating days for a total of 5 doses (Table 1).
Twelve additional monkeys were available for the oral DB868 efficacy study. These animals were, before infection, divided into three groups, each consisting of two males and two females. DB868 was administered orally to each group at 3, 10 or 20 mg/kg/day for 10 consecutive days (Table 2).
(§1) Parasitaemia post-infection was monitored daily, using ear-prick capillary blood, through the completion of DB868 and DB829 treatment. […] At 300 days post-LDD, monkeys were considered cured if they remained normal clinically and parasite-free in the blood and CSF. Pharmacokinetic outcomes were monitored for a minimum of 60 days post-LDD as described previously. […] Monkeys that relapsed, characterized by trypanosome recrudescence in the blood or CSF, were rescue-treated with melarsoprol.

[3] = CSF DB829 concentrations in infected vervet monkeys; assay type: in vivo, vervet monkey; conditions: for concentration at 1 h: 5 mg/kg/day, read-out: geometric mean CSF DB829 concentration
From the text: as §1
(§2) Plasma samples were processed for quantification of DB868 and DB829 by high performance liquid chromatography-tandem mass spectrometry (HPLC-MS/MS) as described previously. CSF samples were processed in a manner similar to that of plasma samples.

[4] = Plasma pharmacokinetics in infected vervet monkeys (HPLC-MS/MS); assay type: in vivo, vervet monkey
From the text: Parasitaemia post-infection was monitored daily, using ear-prick capillary blood, through the completion of DB868 and DB829 treatment. Following the last drug dose (LDD), blood and CSF samples were examined for trypanosomes at 1, 4, 7, and 14 days to determine the end of treatment (EoT) response; monkeys which were positive for trypanosomes in either blood or CSF at the end of this 14-day period were classified as treatment failures/not cured while those that were free of trypanosomes were classified as provisionally cured. After the 14-day EoT evaluations, parasitaemia examinations were continued twice weekly to ≥ 300 days post-LDD as described previously. Additionally, physical examinations and haematological assessments were carried out once weekly up to 28 days post-LDD, once every two weeks between 28 and 100 days post-LDD, and monthly thereafter until the end of the study as described previously. At 300 days post-LDD, monkeys were considered cured if they remained normal clinically and parasite-free in the blood and CSF. Pharmacokinetic outcomes were monitored for a minimum of 60 days post-LDD as described previously. To facilitate the collection of blood and CSF for these assessments, the monkeys were anaesthetised with an IM injection of ketamine HCl (10–15 mg/kg) and diazepam (0.5 mg/kg). Monkeys that relapsed, characterized by trypanosome recrudescence in the blood or CSF, were rescue-treated with melarsoprol. Melarsoprol (Mel B), supplied by the World Health Organization as a 3.6% (w/v) solution in propylene glycol, was administered intravenously at 3.6 mg/kg/day for 4 consecutive days.
as §2
Clinical and haematological data were analysed using Statview for Windows Version 5.0.1 (1995–1998; SAS Institute Inc., Cary, NC, USA). Repeated measures ANOVA, with Fisher’s PLSD post hoc test, was used to test the effect of trypanosome infection on haematologic parameters in comparison with respective baseline values (α = 0.05). In addition, the effects of IM DB829 and oral DB868 on these haematologic parameters in monkeys with confirmed second stage HAT were tested. Pharmacokinetic outcomes were recovered using traditional non-compartmental methods using Phoenix WinNonlin (version 6.2; Pharsight, Mountain View, CA, USA).

[5] = IM 2.5mg/kg × 5 days, monkeys 546M, 693F
[6] = IM 5 mg/kg × 5 alternate days, monkeys 668M, 676F
[7] = IM 5 mg/kg × 5 days, monkeys 569F, 659M
[8] = IM DB829 consecutive-day dosing
[9] = after 5th IM dose, Group 1 = 5 mg/kg × 5 consecutive days, 5 mg/kg

## N=C(N)c1ccc(-c2ccc(-c3ccc(C(=N)N)cn3)o2)nc1 [DB829, 2,5-bis(5-amidino-2-pyridyl)furan]
[1]
  IC50: 0.014 µM
[2]; IM 2.5mg/kg × 5 days
  Cured/treated: 2/2
[2]; [5]
  Final efficacy assessment at 300 days post-LDD of DB829: Cured
  Provisional efficacy at 100 days post-LDD of DB829: Cured
  Trypanosomes at EoT: Neg
[2]; IM 5 mg/kg × 5 alternate days
  Cured/treated: 2/2
[2]; [6]
  Final efficacy assessment at 300 days post-LDD of DB829: Cured
  Provisional efficacy at 100 days post-LDD of DB829: Cured
  Trypanosomes at EoT: Neg
[2]; IM 5 mg/kg × 5 days
  Cured/treated: 1/1
[2]; IM 5 mg/kg × 5 days, alternate-day dosing (28, 30, 30, 32, 34 and 36 DPI), monkeys 668M, 676F
  Time to initial clearance of trypanosomes from body fluids (blood and CSF): 1 days post-LDD
[2]; IM 5mg/kg × 5 days, consecutive-day dosing 28–32 DPI, monkeys 569F, 659M
  Time to initial clearance of trypanosomes from body fluids (blood and CSF): 1 days post-LDD
[2]; IM 5 mg/kg × 5 days, monkey 569F (659M withdrawn)
  Final efficacy assessment at 300 days post-LDD of DB829: Cured
[2]; [7]
  Provisional efficacy at 100 days post-LDD of DB829: Cured
  Trypanosomes at EoT: Neg
[2]; IM, monkeys 546M, 693F, Table 3 prints 5mg/kg × 5 days, consecutive-day dosing 28–32 DPI (text: 2.5 mg/kg/day)
  Time to initial clearance of trypanosomes from body fluids (blood and CSF): 4 days post-LDD and 7 days post-LDD
[2]; all IM DB829 regimens combined
  Final efficacy assessment at 300 days post-LDD of DB829, Overall Results (final combined cure rate): cured all monkeys and 5/5
  Provisional efficacy at 100 days post-LDD of DB829, Overall Results: 6/6
  Trypanosomes at EoT, Overall Results (provisional cure rate): 6/6
[3]; IM 2.5 mg/kg/day consecutive-day dose group, limit of quantification 5 nmol/L
  CSF DB829 concentration: < 5 nmol/L
[3]; IM 5 mg/kg/day alternate-day dose group, 1 h post-LDD
  geometric mean CSF DB829 concentration: ~7.3 nmol/L
[3]; IM 5 mg/kg/day consecutive-day dose group, by 28 days post-LDD
  CSF DB829 concentration: below the limit of quantification
[3]; IM 5 mg/kg/day regimens
  time DB829 CSF concentrations maintained above 5 nmol/L: 2–28 days post-LDD
[3]; monkey, CSF, intramuscular, IM 5 mg/kg/day alternate-day dose group, 1 h post-LDD
  concentration at 1 h: 7.3 nM
[3]; monkey, CSF, intramuscular, IM 5 mg/kg/day consecutive-day dose group, 1 h post-LDD
  concentration at 1 h: 14 nM
[3]; monkey, CSF, intramuscular, IM 5 mg/kg/day, either regimen, 1 h post-LDD, read-out: CSF concentration as share of total (bound + unbound) plasma concentration
  Kp at 1 h: ~0.001
[3]; monkeys treated with oral DB868
  CSF DB829 concentration: not quantifiable
[4]; IM DB829 2.5 mg/kg/day
  geometric mean plasma Cmax of DB829 relative to that after oral DB868 at 20 mg/kg/day: 10 times
[4]; IM DB829 5 mg/kg/day
  AUC, alternate-day relative to consecutive-day dosing regimen: 5 fold
[4]; IM DB829 5 mg/kg/day, after last of 5 doses
  geometric mean plasma Cmax of DB829 relative to that after oral DB868 at 20 mg/kg/day: 25 fold
[4]; IM DB829 5 mg/kg/day, 5 mg/kg/day
  terminal half-life, alternate-day relative to consecutive-day dosing regimen: 4 fold and 5 fold
[4]; IM DB829 2.5 and 5 mg/kg/day consecutive-day dose groups
  median plasma Tmax: 0.04 days
[4]; [8]
  geometric mean AUC, 5 mg/kg/day group relative to 2.5 mg/kg/day group: 2.1 fold
  geometric mean Cmax, 5 mg/kg/day group relative to 2.5 mg/kg/day group: 2.7 fold
[4]; [9]
  AUC0-∞: 13000 nmol·days/L and 15000 nmol·days/L
  Cl/F (apparent clearance): 0.528 mL/min/kg
  t½ (terminal half-life): 44 days
